From patent US8835632B2, “Methods to increase the photostability of dyes” (The University of North Carolina at Chapel Hill, priority 2007, dated 2014)

Assay: Absorption and fluorescence spectra, extinction coefficient, fluorescence quantum yield
Format: physicochemical
Procedure: Absorption spectra were recorded on a Hewlett-Packard 8453 diode array UV-Vis spectrophotometer (Agilent Technologies, Inc., Santa Clara, Calif.), and fluorescence measurements were taken on a SPEX® Fluorolog 2 spectrofluorometer (HORIBA Jobin Yvon, Inc., Edison, N.J.). Melting points are not corrected. NMR spectra were obtained on a Varian Mercury 300 MHz (Varian, Inc., Palo Alto, Calif.) or on a Bruker 300 MHz DRX 300 spectrometer (Bruker Biospin Corp., Billerica, Mass.). Mass spectra were obtained on a Hewlett-Packard 1100 high-performance liquid chromatograph equipped with an 1100 mass selective detector (MS-ESI) (Agilent Technologies, Inc.).
With decreasing solvent polarity, the absorption maximum of dyes 1a-b, 2a-d shifted to longer wavelengths, and the intensity of the transition increased (Table 10, FIG. 11).
The SCRF/VSCRF predicted emission energies and the solute dipole moments before and after the vertical emission process are given in Table 16. The dipole moments of AI-BA(4) and AI-SO(4) are further decreased on the S1 surface after geometry relaxation (in MeOH solution), and then increased during the S1→S0 transition. This observation is consistent with the blue shifts of the emission bands of AI-BA(4) and AI-SO(4) with increasing solvent polarity from C6H6 to MeOH. By contrast, the dipole moment of I-SO further decreases after S1 state geometry relaxation, and then decreases during the vertical emission process. This observation also is in agreement with the red shift of the I-SO emission band with increasing solvent polarity from C6H6 to MeOH. Similarly to the absorption case, a negligible red shift (ΔEem=0.017 eV) was predicted for the emission band of I-TBA with increasing solvent polarity. A small red shift from C6H6 to DMF (with ΔEem=0.020 eV, or Δλmax=6 nm) is observed. The nearly equal emission energy observed in C6H6 and MeOH can again result in the explicit interactions between the solute and solvent molecules.

Compound: Cn1c(O)c(/C=C/C=C(\C#N)c2cc[n+]3c(c2)C(C)(C)c2ccccc2-3)c(=O)n(C)c1=O [AI-BA-CN]
- Absorbance λmax (Butanol (BuOH)): 600 nm
- Emission λmax (Butanol (BuOH)): 620 nm
- Extinction coefficient ε (Butanol (BuOH)): 189000
- Fluorescence quantum yield Φ (Butanol (BuOH)): 0.25
- Absorbance λmax (Methanol (MeOH)): 589 nm
- Emission λmax (Methanol (MeOH)): 613 nm
- Extinction coefficient ε (Methanol (MeOH)): 180000
- Fluorescence quantum yield Φ (Methanol (MeOH)): 0.05
- Absorbance λmax (Water-Methanol (H2O—MeOH)): 578 nm
- Emission λmax (Water-Methanol (H2O—MeOH)): 607 nm
- Extinction coefficient ε (Water-Methanol (H2O—MeOH)): 123000
- Fluorescence quantum yield Φ (Water-Methanol (H2O—MeOH)): 0.15

Compound: Cn1c(O)c(/C=C/C=C/c2cc[n+]3c(c2)C(C)(C)c2ccccc2-3)c(=O)n(C)c1=O [AI-BA]
- Absorbance λmax (Butanol (BuOH)): 615 nm
- Emission λmax (Butanol (BuOH)): 654 nm
- Extinction coefficient ε (Butanol (BuOH)): 154000
- Fluorescence quantum yield Φ (Butanol (BuOH)): 0.29
- Absorbance λmax (Methanol (MeOH)): 585 nm
- Emission λmax (Methanol (MeOH)): 618 nm
- Extinction coefficient ε (Methanol (MeOH)): 83000
- Fluorescence quantum yield Φ (Methanol (MeOH)): 0.52

Compound: CC1(C)c2ccccc2-[n+]2ccc(/C(C#N)=C/C=C/C3=C(O)c4ccccc4S3(=O)=O)cc21 [AI-SO-CN]
- Absorbance λmax (Butanol (BuOH)): 619 nm
- Emission λmax (Butanol (BuOH)): 640 nm
- Extinction coefficient ε (Butanol (BuOH)): 168000
- Fluorescence quantum yield Φ (Butanol (BuOH)): 0.29
- Absorbance λmax (Methanol (MeOH)): 608 nm
- Emission λmax (Methanol (MeOH)): 624 nm
- Extinction coefficient ε (Methanol (MeOH)): 163000
- Fluorescence quantum yield Φ (Methanol (MeOH)): 0.08
- Absorbance λmax (Water-Methanol (H2O—MeOH)): 601 nm
- Emission λmax (Water-Methanol (H2O—MeOH)): 624 nm
- Extinction coefficient ε (Water-Methanol (H2O—MeOH)): 128000
- Fluorescence quantum yield Φ (Water-Methanol (H2O—MeOH)): 0.08

Compound: CCn1c(O)c(/C=C/C=C(\C#N)c2cc[n+]3c(c2)C(C)(C)c2ccccc2-3)c(=O)n(CC)c1=S [AI-TBA-CN]
- Absorbance λmax (Butanol (BuOH)): 621 nm
- Emission λmax (Butanol (BuOH)): 641 nm
- Extinction coefficient ε (Butanol (BuOH)): 188000
- Fluorescence quantum yield Φ (Butanol (BuOH)): 0.33
- Absorbance λmax (Methanol (MeOH)): 606 nm
- Emission λmax (Methanol (MeOH)): 632 nm
- Extinction coefficient ε (Methanol (MeOH)): 146000
- Fluorescence quantum yield Φ (Methanol (MeOH)): 0.22
- Absorbance λmax (Water-Methanol (H2O—MeOH)): 593 nm
- Emission λmax (Water-Methanol (H2O—MeOH)): 625 nm
- Extinction coefficient ε (Water-Methanol (H2O—MeOH)): 77000
- Fluorescence quantum yield Φ (Water-Methanol (H2O—MeOH)): 0.17

Compound: CCn1c([O-])c(/C=C/C=C/c2cc[n+]3c(c2)C(C)(C)c2ccccc2-3)c(=O)n(CC)c1=S [AI-TBA]
- Absorbance λmax (Butanol (BuOH)): 619 nm
- Extinction coefficient ε (Butanol (BuOH)): 53000
- Absorption energy Eabs Exp (C6H6): 1.816 eV
- Absorption energy Eabs Exp (MeOH): 2.153 eV
- Absorbance λmax (Methanol (MeOH)): 576 nm
- Extinction coefficient ε (Methanol (MeOH)): 38000
- Observed absorption (ε) (Table 10, BuOH): (53000)
- Observed absorption λmax (Table 10, BuOH): 619 nm
- Observed absorption (ε) (Table 10, C6H6): (135000)
- Observed absorption λmax (Table 10, C6H6): 683 nm
- Observed absorption (ε) (Table 10, CH2Cl2): (104000)
- Observed absorption λmax (Table 10, CH2Cl2): 655 nm
- Observed absorption (ε) (Table 10, CH3CN): (54000)
- Observed absorption λmax (Table 10, CH3CN): 615 nm
- Observed absorption (ε) (Table 10, DMF): (52000)
- Observed absorption λmax (Table 10, DMF): 616 nm
- Observed absorption (ε) (Table 10, DMSO): (56000)
- Observed absorption λmax (Table 10, DMSO): 607 nm
- Observed absorption (ε) (Table 10, EtOH): (46000)
- Observed absorption λmax (Table 10, EtOH): 603 nm
- Observed absorption (ε) (Table 10, MeOH): (38000)
- Observed absorption λmax (Table 10, MeOH): 576 nm
- Observed absorption (ε) (Table 10, OcOH): (97000)
- Observed absorption λmax (Table 10, OcOH): 633 nm
- Observed absorption (ε) (Table 10, i-PrOH): (50000)
- Observed absorption λmax (Table 10, i-PrOH): 618 nm
- Absorption Exp wavelength (Table 12, C6H6): 683 nm
- Absorption Exp wavelength (Table 12, MeOH): 576 nm

Compound: C[n+]1ccc(/C=C/C2=C([O-])c3ccccc3S2(=O)=O)cc1 [P-SO(2)]
- Observed absorption (ε) (Table 10, BuOH): (67000)
- Observed absorption λmax (Table 10, BuOH): 519 nm
- Observed absorption (ε) (Table 10, C6H6): (169000)
- Observed absorption λmax (Table 10, C6H6): 538 nm
- Observed absorption (ε) (Table 10, CH2Cl2): (128000)
- Observed absorption λmax (Table 10, CH2Cl2): 529 nm
- Observed absorption (ε) (Table 10, CH3CN): (89000)
- Observed absorption λmax (Table 10, CH3CN): 546 nm
- Observed absorption (ε) (Table 10, DMF): (92000)
- Observed absorption λmax (Table 10, DMF): 522 nm
- Observed absorption (ε) (Table 10, DMSO): (75000)
- Observed absorption λmax (Table 10, DMSO): 520 nm
- Observed absorption (ε) (Table 10, EtOH): (65000)
- Observed absorption λmax (Table 10, EtOH): 514 nm
- Observed absorption (ε) (Table 10, MeOH): (57000)
- Observed absorption λmax (Table 10, MeOH): 505 nm
- Observed absorption (ε) (Table 10, OcOH): (72000)
- Observed absorption λmax (Table 10, OcOH): 524 nm
- Observed absorption (ε) (Table 10, i-PrOH): (72000)
- Observed absorption λmax (Table 10, i-PrOH): 518 nm
- Observed emission (Φ) (Table 15, BuOH): 0.015
- Observed emission λmax (Table 15, BuOH): 535 nm
- Observed emission (Φ) (Table 15, C6H6): 0.004
- Observed emission λmax (Table 15, C6H6): 546 nm
- Observed emission (Φ) (Table 15, CH2Cl2): 0.01
- Observed emission λmax (Table 15, CH2Cl2): 541 nm
- Observed emission (Φ) (Table 15, CH3CN): 0.011
- Observed emission λmax (Table 15, CH3CN): 531 nm
- Observed emission (Φ) (Table 15, DMF): 0.025
- Observed emission λmax (Table 15, DMF): 534 nm
- Observed emission (Φ) (Table 15, DMSO): 0.024
- Observed emission λmax (Table 15, DMSO): 535 nm
- Observed emission (Φ) (Table 15, EtOH): 0.008
- Observed emission λmax (Table 15, EtOH): 533 nm
- Observed emission (Φ) (Table 15, MeOH): 0.005
- Observed emission λmax (Table 15, MeOH): 529 nm
- Observed emission (Φ) (Table 15, OcOH): 0.024
- Observed emission λmax (Table 15, OcOH): 536 nm
- Observed emission (Φ) (Table 15, i-PrOH): 0.014
- Observed emission λmax (Table 15, i-PrOH): 532 nm
